# From the supplement of paper PMC10307832
# Experiments:
# Test in all cases: relative viability (nuclei count vs DMSO), 5 days (fraction); higher = more cells survive
# [1] = compound: COc1cc2nc(N3CCCN(C)CC3)nc(NC3CCN(Cc4ccccc4)CC3)c2cc1OC
# In short: (§1)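 For viability, nuclei in each treated well were divided by nuclei in vehicle wells and the median across plates was taken. Lung cancer cell lines in 1536-well plates were pinned with five library-drug doses (not always all listed) spaced by √10, cultured 5 days without medium change, and imaged at 4× after Hoechst staining, with plates passing only at control CV below 25% and at least one doubling.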
# AZD6482 = compound: Cc1cc([C@@H](C)Nc2ccccc2C(=O)O)c2nc(N3CCOCC3)cc(=O)n2c1 [AZD6482]
# In short: as §1
# [2] = compound: COc1cc2nc(N3CCCN(C)CC3)nc(NC3CCN(Cc4ccccc4)CC3)c2cc1OC + COc1cccc2cc(-c3nc([C@H]4CC[C@H](C(=O)O)CC4)n4ncnc(N)c34)[nH]c12 [OSI-027] (partner 0.5 µM)
# In short: (§2)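 One day after seeding in 1536-well plates, lung cancer cell lines were dosed by pin tool. Dosing was either single-drug or a fixed anchor-drug dose plus five library-drug doses (not always all listed) in √10 steps. After 5 days, nuclei were stained in one fix-and-stain step and counted on 4× images, and relative viability is the nuclei count of treated wells over that of vehicle wells, given as the median of duplicate plates.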
# AZD6482 + Pemetrexed = compound: Cc1cc([C@@H](C)Nc2ccccc2C(=O)O)c2nc(N3CCOCC3)cc(=O)n2c1 [AZD6482] + Nc1nc2[nH]cc(CCc3ccc(C(=O)N[C@@H](CCC(=O)O)C(=O)O)cc3)c2c(=O)[nH]1 [Pemetrexed] (partner 0.2 µM)
# In short: as §2
Cell Line,relative viability ([1]; 0.2 µM),relative viability ([1]; 0.6325 µM),relative viability ([1]; 2 µM),relative viability ([1]; 6.325 µM),relative viability (AZD6482; 0.08 µM),relative viability (AZD6482; 0.253 µM),relative viability (AZD6482; 0.8 µM),relative viability (AZD6482; 2.53 µM),relative viability (AZD6482; 8 µM),relative viability ([2]; first compound 0.2 µM),relative viability ([2]; first compound 0.6325 µM),relative viability ([2]; first compound 2 µM),relative viability ([2]; first compound 6.325 µM),relative viability (AZD6482 + Pemetrexed; first compound 0.08 µM),relative viability (AZD6482 + Pemetrexed; first compound 0.253 µM),relative viability (AZD6482 + Pemetrexed; first compound 0.8 µM),relative viability (AZD6482 + Pemetrexed; first compound 2.53 µM),relative viability (AZD6482 + Pemetrexed; first compound 8 µM)
NCI-H520,1.02,0.912,1.02,0.736,0.713,0.627,0.623,0.208,0.337,0.315,0.269,0.212,0.234,0.501,0.409,0.394,0.144,0.222
NCI-H522,0.987,1.01,0.936,1.02,0.959,0.789,0.981,0.926,0.768,0.654,0.755,0.74,0.499,0.932,0.933,1.11,0.87,0.923
NCI-H596,0.969,1.19,0.964,0.836,0.844,0.91,0.92,0.909,0.929,0.771,0.786,0.866,0.667,0.451,0.485,0.486,0.462,0.492
NCI-H647,0.872,1.06,1.04,0.764,0.797,0.564,0.859,0.513,0.646,0.597,0.664,0.62,0.272,0.154,0.161,0.191,0.16,0.158
NCI-H650,0.973,0.935,1.09,0.862,1.07,–,0.92,0.653,0.685,0.532,0.483,0.508,0.329,1.01,0.859,0.874,0.568,0.441
NCI-H661,0.978,0.987,1,1.01,0.981,0.98,0.973,0.671,0.851,0.734,0.691,0.772,0.725,0.94,1.01,0.974,0.74,0.803
NCI-H838,0.992,1.03,1.08,0.92,0.826,0.95,0.914,0.538,0.535,0.433,0.429,0.362,0.375,0.287,0.264,0.25,0.226,0.232
NCI-H1355,0.891,0.992,1,0.95,0.872,0.852,1.01,0.733,0.777,0.393,0.456,0.467,0.401,0.939,1.07,1.07,0.856,0.875
NCI-H1395,0.925,1.09,0.976,0.787,0.742,0.539,0.697,0.443,0.527,0.715,0.731,0.677,0.419,0.742,0.552,0.591,0.45,0.521
NCI-H1437,0.983,0.992,1.06,0.99,1.04,0.972,1.03,0.847,0.726,0.901,0.876,0.85,0.918,0.314,0.307,0.306,0.274,0.225
NCI-H1563,0.974,0.963,0.967,0.966,0.829,0.852,0.906,0.763,0.722,0.748,0.713,0.773,0.729,0.666,0.676,0.642,0.605,0.698
NCI-H1648,0.713,0.798,0.757,1.13,0.888,0.863,0.954,0.519,0.599,0.258,0.318,0.313,0.275,0.892,0.625,0.816,–,0.671
NCI-H1650,0.863,1.03,0.924,0.835,0.839,0.854,0.778,0.719,0.862,0.602,0.857,0.519,0.555,0.332,0.295,0.372,0.287,0.361
NCI-H1651,0.974,0.983,1.02,1.03,0.897,0.932,0.93,0.814,0.815,0.706,0.686,0.729,0.714,0.578,0.545,0.556,0.401,0.482
NCI-H1666,0.948,1.05,0.947,0.903,0.842,0.95,0.984,0.853,1.05,0.816,0.877,0.757,0.859,0.902,0.964,0.905,0.735,0.82
NCI-H1734,0.967,0.876,0.889,0.855,0.905,0.907,1.04,0.611,0.795,0.587,0.583,0.506,0.501,0.408,0.442,0.408,0.396,0.397
NCI-H1755,0.974,0.957,0.939,0.935,0.957,0.953,1,0.756,0.785,0.791,0.663,0.671,0.518,0.416,0.435,0.436,0.383,0.36
NCI-H1792,0.821,1.06,0.952,1.11,0.753,0.758,0.878,0.412,0.496,0.836,0.816,0.682,0.784,0.63,0.632,0.641,0.303,0.417

Cell Line,relative viability ([1]; 0.2 µM),relative viability ([1]; 0.6325 µM),relative viability ([1]; 2 µM),relative viability ([1]; 6.325 µM),relative viability (AZD6482; 0.08 µM),relative viability (AZD6482; 0.253 µM),relative viability (AZD6482; 0.8 µM),relative viability (AZD6482; 2.53 µM),relative viability (AZD6482; 8 µM),relative viability ([2]; first compound 0.2 µM),relative viability ([2]; first compound 0.6325 µM),relative viability ([2]; first compound 2 µM),relative viability ([2]; first compound 6.325 µM),relative viability (AZD6482 + Pemetrexed; first compound 0.08 µM),relative viability (AZD6482 + Pemetrexed; first compound 0.253 µM),relative viability (AZD6482 + Pemetrexed; first compound 0.8 µM),relative viability (AZD6482 + Pemetrexed; first compound 2.53 µM),relative viability (AZD6482 + Pemetrexed; first compound 8 µM)
NCI-H1793,0.86,0.959,0.863,0.819,0.774,0.5,0.756,0.386,0.499,0.241,0.365,0.225,0.293,0.509,0.545,0.818,0.416,0.383
NCI-H1915,0.978,0.908,1.06,0.973,0.996,0.897,1.09,0.893,1.01,0.584,0.619,0.684,0.637,0.491,0.434,0.513,0.349,0.452
NCI-H1944,1.01,1,0.745,0.902,0.92,0.836,0.946,0.685,0.735,0.428,0.465,0.307,0.398,0.535,0.575,0.604,0.427,0.499
NCI-H1975,0.974,0.999,1.15,1,0.853,0.84,0.939,0.652,0.573,0.785,0.693,0.744,0.776,0.257,0.28,0.31,0.303,0.308
NCI-H1993,0.879,1.18,0.912,0.905,0.68,0.792,0.631,0.557,0.676,0.534,0.57,0.529,0.553,0.464,0.58,0.48,0.4,1.03
NCI-H2009,1.04,0.94,1.17,0.932,1.02,1.04,1.06,0.59,0.74,0.681,0.531,0.784,0.29,0.972,1.12,1.11,0.724,1.01
NCI-H2023,0.949,0.995,0.93,0.516,0.923,0.881,0.909,0.567,0.662,0.363,0.508,0.364,0.126,0.254,0.226,0.204,0.175,0.176
NCI-H2085,1.01,1.02,0.992,0.965,0.801,0.675,0.588,0.4,0.384,0.742,0.788,0.72,0.584,0.567,0.384,0.407,0.317,0.299
NCI-H2087,0.921,0.995,1.03,1.09,0.841,0.996,1.35,0.555,1.08,0.469,0.428,0.547,0.452,0.682,0.63,0.596,0.593,0.674
NCI-H2126,0.996,1.02,0.998,0.926,0.916,0.94,0.891,0.585,0.654,0.769,0.794,0.693,0.662,0.683,0.677,0.692,0.411,0.434
NCI-H2170,1.02,0.963,1,0.975,0.909,0.897,0.944,0.851,0.927,0.802,0.711,0.695,0.682,0.257,0.242,0.265,0.252,0.251
NCI-H2228,0.9,1.12,1.07,0.753,0.745,0.965,1.17,0.775,0.901,0.539,0.451,0.499,0.256,0.325,0.3,0.325,0.303,0.309
NCI-H2342,1.02,0.887,0.956,0.995,0.892,0.87,0.92,0.653,0.688,0.677,0.574,0.785,0.692,0.745,0.681,0.726,0.609,0.567
NCI-H2347,1.02,0.975,1.04,1,0.627,0.785,0.805,0.617,0.664,0.461,0.304,0.452,0.472,0.382,0.455,0.362,0.38,0.364
NCI-H2405,1.03,1.08,1.13,0.989,0.749,0.672,1.03,0.631,0.599,0.717,0.677,0.671,0.66,0.81,0.977,0.987,0.569,0.436
NCI-H3122,0.932,0.959,1.04,0.998,1,1.02,1.01,0.756,0.915,0.935,0.877,0.992,0.729,0.191,0.198,0.2,0.189,0.189
PC-3 [JPC-3],1.06,1.02,1.06,0.959,0.899,1.06,1.08,0.814,0.985,0.767,0.746,0.764,0.764,1.07,1.05,1.04,0.634,0.533
